Test [1] has as its system Plasmodium falciparum. Kind of test: Antiplasmodial activity against asynchronous form of Plasmodium falciparum 3D7 infected in human erythrocytes assessed as parasite growth inhibition after 48 hrs by SYBR green1 staining based flow cytometry. It counts as functional, organism-based. The settings on record: 3D7, 48 h. (In general: A flow cytometer gives signals particle by particle.)

In test [2] the test system is Plasmodium falciparum. As to the kind of experiment: Antiplasmodial activity against asynchronous form of Plasmodium falciparum 3D7 infected in human erythrocytes assessed as parasite growth inhibition at 10 uM after 48 hrs by SYBR green1 staining based flow cytometry relative to control. It counts as functional. The following applies: 3D7, 48 h.

pIC50: −log10 of the molar value.

A word on the pIC50: it is the IC50 on a negative log10 scale, so that one unit is a factor of ten. By inhibition is commonly meant how much of the control response was suppressed.

Take `O=C1/C(=C/c2ccc(O)c(Br)c2)CN(Cc2ccccc2)C/C1=C\c1ccc(O)c(Br)c1`: in test [1], the pIC50 is less than 6.00. For the same compound, the inhibition at 10 µM in test [2] was determined as 100%. As to `O=C(CCCCSc1nc(-c2ccc(Cl)cc2)cc(=O)[nH]1)NO`, the negative logarithm of the IC50 (pIC50) in test [1] was 7.05. Besides, the inhibition at 10 µM in test [2] was found to be 98%. For `O=S(=O)(c1cccc(C(F)(F)F)c1)N1c2ccccc2-n2cccc2C1c1cccnc1` (stereo not drawn), the negative-log IC50 (pIC50) in test [1] was 6.17. Further, the inhibition at 10 µM in test [2] worked out at 99.5%. For the compound `O=c1[nH]c(SCCN2CCN(c3ccccn3)CC2)nc2ccccc12`, the inhibition at 10 µM in test [2] worked out at 2%. For the compound `NC1CC1c1ccc(NC(=O)CCCNC(=O)c2ccc(O)c3ncccc23)cc1` (stereo not drawn), in test [2], the inhibition at 10 µM was 45.3%. Turning to `NC1CC1c1ccc(NC(=O)c2ccc(-c3ccccc3)cc2)cc1` (stereo not drawn), the pIC50 in test [1] is less than 6.00. Moreover, the inhibition at 10 µM in test [2] worked out at 97.5%. Consider `CCCCCCCCCCCCCCC=C(C(=O)OCC)C(=O)OCC`, for which the pIC50 in test [1] is less than 6.00. For the same compound, in test [2], the inhibition at 10 µM worked out at 92.7%. Take `BrCCCc1nc(-c2ccc(Br)cc2)no1`: in test [2], the inhibition at 10 µM is 18.7%. Turning to `NC1CC1c1ccc(NC(=O)CCCCCNC(=O)c2ccc(O)c3ncccc23)cc1` (stereo not drawn), the negative logarithm of the IC50 (pIC50) in test [1] was less than 6.00. In test [2], the inhibition at 10 µM came out at 96.7%. On the same counts, the results for `c1ccc(CN2CCC(Nc3nc(N4CCN(c5ccccc5)CC4)nc4ccccc34)CC2)cc1` are 6.49 and 100%. Consider `O=C(/C=C/c1ccc(Cc2nnc(Cc3cccc4ccccc34)o2)cc1)NO`, for which the negative-log IC50 (pIC50) in test [1] is 6.61. The inhibition at 10 µM in test [2] came to 98%. Take `CC(C)N(CCCNC(=O)Nc1ccc(C(C)(C)C)cc1)C[C@H]1O[C@@H](n2cnc3c(N)ncnc32)[C@H](O)[C@@H]1O`: the inhibition at 10 µM in test [2] came out at 9.7%. Regarding `CCOC(=O)c1c(C)nc2ccccc2c1O`, the negative-log IC50 (pIC50) in test [1] was less than 6.00. In addition, the inhibition at 10 µM in test [2] worked out at 60.1%. The matching figures for `NC1CC1c1ccc(NC(=O)CCCCNC(=O)c2ccc(O)c3ncccc23)cc1` (stereo not drawn): less than 6.00 and 97.8%. Take `O=C(O)c1ccc(O)c2ncccc12`: the inhibition at 10 µM in test [2] was 25.4%. On to `Nc1ccccc1NC(=O)c1ccc(CNC(=O)OCc2cccnc2)cc1` [ENTINOSTAT], for which, in test [1], the pIC50 was less than 6.00. In test [2], the inhibition at 10 µM was 50.9%. As for `NC1CC1c1ccc(NC(=O)c2ccc(O)c3ncccc23)cc1` (stereo not drawn), the negative logarithm of the IC50 (pIC50) in test [1] was 6.00 to 6.11. The inhibition at 10 µM in test [2] lay in the range of 98.9 to 100%. As to `O=C1/C(=C/c2ccc(O)c(Br)c2)CSC/C1=C\c1ccc(O)c(Br)c1`, in test [1], the negative-log IC50 (pIC50) was 6.02. Moreover, the inhibition at 10 µM in test [2] was found to be 99.5%. For `CCOC(=O)C1=CN(Cc2ccccc2)C=C(C(=O)OCC)C1c1ccccc1`, the negative-log IC50 (pIC50) in test [1] was less than 6.00. In addition, in test [2], the inhibition at 10 µM stood at 97.2%. Consider `CC1=NN(c2ccc(C(=O)O)cc2)C(=O)/C1=C\c1ccc(-c2cc(C)c(C)cc2[N+](=O)[O-])o1`, for which the inhibition at 10 µM in test [2] came out at 12.8%.

Regarding `Cc1cc(C)c(CNC(=O)c2cnn(-c3ccccc3)c2C)c(=O)[nH]1`, the inhibition at 10 µM in test [2] was determined as 14.7%. With `CC(C)(C)OC(=O)Nc1cccc(C(=O)/C=C/c2ccc(/C=C/C(=O)NO)cc2)c1`, the pIC50 in test [1] is 6.37. Also, in test [2], the inhibition at 10 µM came out at 100%. The matching figures for `CC1=C(/C=C/C(C)=C/C=C/C(C)=C/C(=O)Nc2ccccc2N)C(C)(C)CCC1`: less than 6.00 and 97.1%. As for `O=C(/C=C/c1ccccc1CSc1nc(O)cc(-c2ccccc2)n1)NO`, the inhibition at 10 µM in test [2] is 2.8%. For the compound `CC(C(=O)Nc1cccc(/N=C/c2c(O)ccc3ccccc23)c1)c1ccccc1` (stereo not drawn) [SALERMIDE], the pIC50 in test [1] is less than 6.00. Besides, the inhibition at 10 µM in test [2] amounted to 72.3%. Turning to `O=c1nc2oc3ccc4ccccc4c3cc-2c(=O)n1-c1ccccc1`, the negative-log IC50 (pIC50) in test [1] was less than 6.00. The inhibition at 10 µM in test [2] turned out to be 80.5%. The matching figures for `NC1CC1c1ccc(NC(=O)[C@H](Cc2ccccc2)NC(=O)OCc2ccccc2)cc1` (stereo partly drawn): less than 6.00 and 64.6%. As to `Cn1c(/C=C/C(=O)NO)ccc1/C=C/C(=O)c1cccc(Cl)c1`, in test [1], the pIC50 is less than 6.00. Also, the inhibition at 10 µM in test [2] came to 89.6%.

(Values after ChEMBL document CHEMBL4325862, “Identification of novel quinazoline derivatives as potent antiplasmodial agents” (Eur J Med Chem, 2019).)
